14 compounds from patent US20230150974A1 (Foghorn Therapeutics Inc., priority 2020, published 2023) can be followed below.

Assay [1] deals with T1, HiBiT-BRM (Homo sapiens, UniProt P51531).
T1 construct: expressed in transfected cells
The assay can be described thus: HiBiT-BRM cell-based degradation assay (Nano-Glo HiBiT Lytic Detection). Particulars: HeLa cells expressing HiBiT-BRM, 24 h; for DC50: read-out: BRM HiBit Degradation IC50. The gist of the method:
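HeLa cells stably expressing HiBiT-tagged BRM were treated for 24 h, then lysed with LgBiT-containing Nano-Glo reagent and luminescence read. % degradation scaled between DMSO (high control) and 2 μM reference BRM/BRG1 degrader (low control).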

Assay [2] deals with T2, HiBit-BRG1 (Homo sapiens, UniProt P51532).
T2 construct: expressed in transfected cells
T2 sequence (P51532 whole entry): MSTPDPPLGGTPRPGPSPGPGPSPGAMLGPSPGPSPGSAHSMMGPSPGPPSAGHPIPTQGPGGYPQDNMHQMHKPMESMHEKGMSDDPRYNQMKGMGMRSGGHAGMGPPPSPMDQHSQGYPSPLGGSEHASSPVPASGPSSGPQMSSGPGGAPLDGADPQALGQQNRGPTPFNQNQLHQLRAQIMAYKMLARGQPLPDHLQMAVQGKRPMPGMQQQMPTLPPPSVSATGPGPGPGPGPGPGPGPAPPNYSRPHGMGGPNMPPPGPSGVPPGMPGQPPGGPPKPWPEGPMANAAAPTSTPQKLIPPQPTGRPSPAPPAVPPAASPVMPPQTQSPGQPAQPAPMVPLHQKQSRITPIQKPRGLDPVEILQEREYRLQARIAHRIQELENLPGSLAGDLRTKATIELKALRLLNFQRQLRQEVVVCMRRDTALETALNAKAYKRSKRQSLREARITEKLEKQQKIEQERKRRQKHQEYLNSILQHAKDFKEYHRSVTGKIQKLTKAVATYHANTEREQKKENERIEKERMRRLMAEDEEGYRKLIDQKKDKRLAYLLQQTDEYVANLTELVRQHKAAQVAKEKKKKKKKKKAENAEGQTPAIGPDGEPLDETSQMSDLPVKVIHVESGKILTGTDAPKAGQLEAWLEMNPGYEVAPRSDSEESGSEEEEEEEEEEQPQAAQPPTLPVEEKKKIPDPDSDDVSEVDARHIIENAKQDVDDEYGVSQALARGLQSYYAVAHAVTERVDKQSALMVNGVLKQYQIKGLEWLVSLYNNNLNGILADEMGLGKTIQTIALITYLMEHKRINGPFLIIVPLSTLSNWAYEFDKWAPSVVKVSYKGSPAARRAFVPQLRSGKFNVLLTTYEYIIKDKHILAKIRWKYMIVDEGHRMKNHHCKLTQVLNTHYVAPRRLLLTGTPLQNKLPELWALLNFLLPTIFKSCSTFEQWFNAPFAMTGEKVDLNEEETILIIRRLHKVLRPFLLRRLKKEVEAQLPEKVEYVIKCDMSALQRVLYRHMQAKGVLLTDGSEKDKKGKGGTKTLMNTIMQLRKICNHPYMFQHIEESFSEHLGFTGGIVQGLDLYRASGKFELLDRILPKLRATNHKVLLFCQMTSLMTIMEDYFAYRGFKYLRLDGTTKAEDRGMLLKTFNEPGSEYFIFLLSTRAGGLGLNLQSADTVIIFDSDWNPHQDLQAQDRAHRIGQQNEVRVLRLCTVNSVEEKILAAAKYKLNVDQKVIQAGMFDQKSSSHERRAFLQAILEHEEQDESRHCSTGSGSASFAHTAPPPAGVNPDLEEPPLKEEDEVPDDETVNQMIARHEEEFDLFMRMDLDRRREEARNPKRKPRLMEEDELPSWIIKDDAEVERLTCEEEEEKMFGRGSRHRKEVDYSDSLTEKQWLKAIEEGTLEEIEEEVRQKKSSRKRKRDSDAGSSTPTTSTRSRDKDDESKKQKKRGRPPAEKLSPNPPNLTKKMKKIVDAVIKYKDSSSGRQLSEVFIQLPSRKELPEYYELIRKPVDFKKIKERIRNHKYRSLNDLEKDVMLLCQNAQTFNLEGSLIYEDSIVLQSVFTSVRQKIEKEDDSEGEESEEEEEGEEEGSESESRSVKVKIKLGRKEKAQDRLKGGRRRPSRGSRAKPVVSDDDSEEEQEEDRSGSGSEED
The assay can be described thus: HiBit-BRG1 cell-based degradation assay (Nano-Glo HiBiT Lytic Detection). Conditions: HeLa cells expressing HiBit-BRG1 and LgBit, 24 h; for DC50: read-out: BRG1 HiBit Degradation IC50; for Dmax: read-out: BRG1 HiBit Degradation Maximum (%). The method, boiled down: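 Percent degradation derived from lytic HiBiT signal, normalized to DMSO-treated cells and to cells given 2 μM of a known BRM/BRG1 degrader. The HeLa line stably expressed HiBit-BRG1 and LgBit; treatment lasted 24 h at 5000 cells per well.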

T1 sequence (P51531 whole entry): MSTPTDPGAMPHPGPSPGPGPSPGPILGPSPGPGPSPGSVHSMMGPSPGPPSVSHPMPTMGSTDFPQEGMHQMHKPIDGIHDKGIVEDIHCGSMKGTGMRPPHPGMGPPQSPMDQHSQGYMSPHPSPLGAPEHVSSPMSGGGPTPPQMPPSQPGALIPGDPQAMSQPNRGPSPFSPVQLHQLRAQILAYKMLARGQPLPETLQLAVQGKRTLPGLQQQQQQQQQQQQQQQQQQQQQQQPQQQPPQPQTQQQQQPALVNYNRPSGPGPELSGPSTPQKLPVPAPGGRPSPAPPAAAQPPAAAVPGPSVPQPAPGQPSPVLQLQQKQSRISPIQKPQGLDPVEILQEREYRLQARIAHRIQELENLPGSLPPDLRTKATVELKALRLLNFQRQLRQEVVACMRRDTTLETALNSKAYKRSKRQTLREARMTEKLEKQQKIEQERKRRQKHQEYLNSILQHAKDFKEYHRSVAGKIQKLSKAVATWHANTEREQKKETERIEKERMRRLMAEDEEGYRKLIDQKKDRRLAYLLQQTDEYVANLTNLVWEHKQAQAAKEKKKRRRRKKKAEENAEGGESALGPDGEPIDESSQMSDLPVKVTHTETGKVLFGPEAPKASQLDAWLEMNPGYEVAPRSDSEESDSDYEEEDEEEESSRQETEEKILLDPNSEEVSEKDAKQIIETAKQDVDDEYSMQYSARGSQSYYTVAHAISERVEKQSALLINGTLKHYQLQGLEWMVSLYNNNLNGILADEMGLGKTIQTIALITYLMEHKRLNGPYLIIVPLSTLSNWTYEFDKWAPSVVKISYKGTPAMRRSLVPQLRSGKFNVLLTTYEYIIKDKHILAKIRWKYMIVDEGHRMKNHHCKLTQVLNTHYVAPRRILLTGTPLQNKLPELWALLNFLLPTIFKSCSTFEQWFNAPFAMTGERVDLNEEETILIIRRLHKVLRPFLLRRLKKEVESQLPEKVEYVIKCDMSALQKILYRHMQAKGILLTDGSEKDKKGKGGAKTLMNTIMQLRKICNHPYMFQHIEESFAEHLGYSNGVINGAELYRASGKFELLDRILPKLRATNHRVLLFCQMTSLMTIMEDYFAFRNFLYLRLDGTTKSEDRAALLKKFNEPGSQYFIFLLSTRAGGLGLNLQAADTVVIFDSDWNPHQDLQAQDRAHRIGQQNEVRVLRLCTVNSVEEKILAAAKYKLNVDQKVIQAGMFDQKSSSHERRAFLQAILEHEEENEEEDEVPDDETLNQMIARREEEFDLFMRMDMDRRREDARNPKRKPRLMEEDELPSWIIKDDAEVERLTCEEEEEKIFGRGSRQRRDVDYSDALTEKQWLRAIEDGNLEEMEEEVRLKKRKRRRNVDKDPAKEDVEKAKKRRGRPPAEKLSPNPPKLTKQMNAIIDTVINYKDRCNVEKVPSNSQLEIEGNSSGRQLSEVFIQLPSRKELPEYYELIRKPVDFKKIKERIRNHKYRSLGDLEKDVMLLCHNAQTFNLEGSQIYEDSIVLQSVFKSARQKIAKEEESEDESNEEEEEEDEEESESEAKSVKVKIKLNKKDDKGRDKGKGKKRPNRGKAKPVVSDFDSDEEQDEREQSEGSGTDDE

In the case of `Nc1nnc(-c2ccccc2O)cc1OCCc1ccc(C(=O)NCCCCCNc2cccc3c2C(=O)N(C2CCC(=O)NC2=O)C3=O)cc1` (centres unmarked) [Compound 50, 4-(2-((3-amino-6-(2-hydroxyphenyl)pyridazin-4-yl)oxy)ethyl)-N-(5-((2-(2,6-dioxopiperidin-3-yl)-1,3-dioxoisoindolin-4-yl)amino)pentyl)benzamide], in assay [1], the “BRM HiBit Degradation Maximum (%)” value is listed as “C (“C” indicates maximum degradation <50%)” and the DC50 was greater than 1000 nM. For the same compound, in assay [2], the DC50 is greater than 1000 nM and the Dmax is less than 50%.

`Cc1ncsc1-c1ccc(CNC(=O)[C@@H]2C[C@@H](O)CN2C(=O)[C@@H](NC(=O)COCCOCCOCC(=O)NCc2ccc(CCOc3cc(-c4ccccc4O)nnc3N)cc2)C(C)(C)C)cc1` [Compound 38, (2S,4R)-1-[(2S)-2-[2-(2-[2-[([[4-(2-[[3-amino-6-(2-hydroxyphenyl)pyridazin-4-yl]oxy]ethyl)phenyl]methyl]carbamoyl)methoxy]ethoxy]ethoxy)acetamido]-3,3-dimethylbutanoyl]-4-hydroxy-N-[[4-(4-methyl-1,3-thiazol-5-yl)phenyl]methyl]pyrrolidine-2-carboxamide]: in assay [1], the “BRM HiBit Degradation Maximum (%)” value was “B (“B” indicates maximum degradation ≥50%)” and the DC50 was greater than 1000 nM. Moreover, in assay [2], the DC50 is greater than 1000 nM and the Dmax is less than 50%.

For the compound `Cc1ncsc1-c1ccc(CNC(=O)[C@H]2C[C@H](O)CN2C(=O)[C@H](NC(=O)COCCOCCOCCNC(=O)c2ccc(CCOc3cc(-c4ccccc4O)nnc3N)cc2)C(C)(C)C)cc1` (stereo in doubt) [Compound 60, (2R,4S)-1-[(2R)-2-(2-[2-[2-(2-[[4-(2-[[3-amino-6-(2-hydroxyphenyl)pyridazin-4-yl]oxy]ethyl)phenyl]formamido]ethoxy)ethoxy]ethoxy]acetamido)-3,3-dimethylbutanoyl]-4-hydroxy-N-[[4-(4-methyl-1,3-thiazol-5-yl)phenyl]methyl]pyrrolidine-2-carboxamide], in assay [1], the “BRM HiBit Degradation Maximum (%)” value is on record as “B (“B” indicates maximum degradation ≥50%)” and the DC50 was greater than 1000 nM. Further, in assay [2], the DC50 was greater than 1000 nM and the Dmax was less than 50%.

Consider `Nc1nnc(-c2ccccc2O)cc1N1CCN(CCNC(=O)CCCCCCCCNc2cccc3c2C(=O)N(C2CCC(=O)NC2=O)C3=O)CC1` (centres unmarked) [Compound 97, N-(2-[4-[3-amino-6-(2-hydroxyphenyl)pyridazin-4-yl]piperazin-1-yl]ethyl)-9-[[2-(2,6-dioxopiperidin-3-yl)-1,3-dioxoisoindol-4-yl]amino]nonanamide], for which, in assay [1], the “BRM HiBit Degradation Maximum (%)” value is on record as “C (“C” indicates maximum degradation <50%)” and the DC50 is greater than 1000 nM. In assay [2], the DC50 is greater than 1000 nM and the Dmax was less than 50%.

On to `Cc1ncsc1-c1ccc(CNC(=O)[C@@H]2C[C@@H](O)CN2C(=O)[C@@H](NC(=O)CCCCCCCCCNCc2ccc(CCN(C)c3cc(-c4ccccc4O)nnc3N)cc2)C(C)(C)C)cc1` [Compound 131, (2S,4R)-1-((S)-2-(10-((4-(2-((3-amino-6-(2-hydroxyphenyl)pyridazin-4-yl)(methyl)amino)ethyl)benzyl)amino)decanamido)-3,3-dimethylbutanoyl)-4-hydroxy-N-(4-(4-methylthiazol-5-yl)benzyl)pyrrolidine-2-carboxamide], for which, in assay [1], the “BRM HiBit Degradation Maximum (%)” value is given as “A (“A” indicates maximum degradation ≥75%)” and the DC50 was greater than 100 nM. In assay [2], the DC50 is greater than 100 nM and the Dmax is greater than 50%.

In the case of `Cc1ncsc1-c1ccc(CNC(=O)[C@@H]2C[C@@H](O)CN2C(=O)[C@@H](NC(=O)CCN2CCC(OC3CCN(CCC(=O)NCc4ccc(CCOc5cc(-c6ccccc6O)nnc5N)cc4)CC3)CC2)C(C)(C)C)cc1` [Compound 236, (2S,4R)-1-((S)-2-(3-(4-((1-(3-((4-(2-((3-amino-6-(2-hydroxyphenyl)pyridazin-4-yl)oxy)ethyl)benzyl)amino)-3-oxopropyl)piperidin-4-yl)oxy)piperidin-1-yl)propanamido)-3,3-dimethylbutanoyl)-4-hydroxy-N-(4-(4-methylthiazol-5-yl)benzyl)pyrrolidine-2-carboxamide], in assay [1], the “BRM HiBit Degradation Maximum (%)” value is given as “B (“B” indicates maximum degradation ≥50%)” and the DC50 is greater than 1000 nM. Further, in assay [2], the DC50 was greater than 1000 nM and the Dmax was less than 50%.

`Nc1nnc(-c2ccccc2O)cc1N1CCN(CC(=O)NCCCCCCCCNc2ccc3c(c2)C(=O)N(C2CCC(=O)NC2=O)C3=O)CC1` (centres unmarked) [Compound 83, 2-[4-[3-amino-6-(2-hydroxyphenyl)pyridazin-4-yl]piperazin-1-yl]-N-(8-[[2-(2,6-dioxopiperidin-3-yl)-1,3-dioxoisoindol-5-yl]amino]octyl)acetamide]: in assay [1], the “BRM HiBit Degradation Maximum (%)” value is given as “B (“B” indicates maximum degradation ≥50%)” and the DC50 is greater than 100 nM. Also, in assay [2], the DC50 was greater than 1000 nM and the Dmax is less than 50%.

`Cc1ncsc1-c1ccc(CNC(=O)[C@@H]2C[C@@H](O)CN2C(=O)[C@@H](NC(=O)CCCCCCCCCNC(=O)c2ccc(CCOc3cc(-c4ccccc4O)nnc3N)cc2)C(C)(C)C)cc1` [Compound 47, (2S,4R)-1-[(2S)-2-(10-[[4-(2-[[3-amino-6-(2-hydroxyphenyl)pyridazin-4-yl]oxy]ethyl)phenyl]formamido]decanamido)-3,3-dimethylbutanoyl]-4-hydroxy-N-[[4-(4-methyl-1,3-thiazol-5-yl)phenyl]methyl]pyrrolidine-2-carboxamide]: in assay [1], the “BRM HiBit Degradation Maximum (%)” value was “B (“B” indicates maximum degradation ≥50%)” and the DC50 was greater than 100 nM. Besides, in assay [2], the DC50 is greater than 1000 nM and the Dmax is less than 50%.

In the case of `Cc1ncsc1-c1ccc([C@H](C)NC(=O)[C@@H]2C[C@@H](O)CN2C(=O)[C@@H](c2cc(OCCN3CCN(CC(=O)NCc4ccc(CCOc5cc(-c6ccccc6O)nnc5N)cc4)CC3)no2)C(C)C)cc1` [Compound 174, (2S,4R)-1-((R)-2-(3-(2-(4-(2-((4-(2-((3-amino-6-(2-hydroxyphenyl)pyridazin-4-yl)oxy)ethyl)benzyl)amino)-2-oxoethyl)piperazin-1-yl)ethoxy)isoxazol-5-yl)-3-methylbutanoyl)-4-hydroxy-N-((S)-1-(4-(4-methylthiazol-5-yl)phenyl)ethyl)pyrrolidine-2-carboxamide], in assay [1], the “BRM HiBit Degradation Maximum (%)” value was “A (“A” indicates maximum degradation ≥75%)” and the DC50 is greater than 10 nM. Further, in assay [2], the DC50 is greater than 100 nM and the Dmax is greater than 75%.

Consider `Nc1nnc(-c2ccccc2O)cc1N1CCN(CC(=O)NCCS(=O)(=O)CCNc2cccc3c2C(=O)N(C2CCC(=O)NC2=O)C3=O)CC1` (centres unmarked) [Compound 79, 2-[4-[3-amino-6-(2-hydroxyphenyl)pyridazin-4-yl]piperazin-1-yl]-N-[2-(2-[[2-(2,6-dioxopiperidin-3-yl)-1,3-dioxoisoindol-4-yl]amino]ethanesulfonyl)ethyl]acetamide], for which, in assay [1], the “BRM HiBit Degradation Maximum (%)” value is “C (“C” indicates maximum degradation <50%)” and the DC50 is greater than 1000 nM. In addition, in assay [2], the DC50 was greater than 1000 nM and the Dmax was less than 50%.

As for `Nc1nnc(-c2ccccc2O)cc1OCCc1ccc(CNC(=O)CCCCNc2ccc3c(c2)C(=O)N(C2CCC(=O)NC2=O)C3)cc1` (centres unmarked) [Compound 135, N-[[4-(2-[[3-amino-6-(2-hydroxyphenyl)pyridazin-4-yl]oxy]ethyl)phenyl]methyl]-5-[[2-(2,6-dioxopiperidin-3-yl)-3-oxo-1H-isoindol-5-yl]amino]pentanamide], in assay [1], the “BRM HiBit Degradation Maximum (%)” value is “C (“C” indicates maximum degradation <50%)” and the DC50 is greater than 1000 nM. Besides, in assay [2], the DC50 is greater than 1000 nM and the Dmax is less than 50%.

With `Cc1ncsc1-c1ccc([C@H](C)NC(=O)[C@@H]2C[C@@H](O)CN2C(=O)[C@@H](c2cc(OCCN3C[C@@H]4[C@H](C3)[C@H]4C(=O)NCc3ccc(CCOc4cc(-c5ccccc5O)nnc4N)cc3)no2)C(C)C)cc1` [Compound 194], in assay [1], the “BRM HiBit Degradation Maximum (%)” value is “A (“A” indicates maximum degradation ≥75%)” and the DC50 was greater than 10 nM. Besides, in assay [2], the DC50 was greater than 100 nM and the Dmax is greater than 75%.

Consider `Cc1ncsc1-c1ccc(CNC(=O)[C@@H]2C[C@@H](O)CN2C(=O)[C@@H](NC(=O)CCCCCCCCCCCCCC(=O)NCc2ccc(CCOc3cc(-c4ccccc4O)nnc3N)cc2)C(C)C)cc1` [Compound 169, N1-(4-(2-((3-amino-6-(2-hydroxyphenyl)pyridazin-4-yl)oxy)ethyl)benzyl)-N15-((S)-1-((2S,4R)-4-hydroxy-2-((4-(4-methylthiazol-5-yl)benzyl)carbamoyl)pyrrolidin-1-yl)-3-methyl-1-oxobutan-2-yl)pentadecanediamide], for which, in assay [1], the “BRM HiBit Degradation Maximum (%)” value was “B (“B” indicates maximum degradation ≥50%)” and the DC50 is greater than 100 nM. In addition, in assay [2], the DC50 is greater than 1000 nM and the Dmax was less than 50%.

As for `Nc1nnc(-c2ccccc2O)cc1OCCc1ccc(CNCCCCCNc2cccc3nnn(C4CCC(=O)NC4=O)c(=O)c23)cc1` (centres unmarked) [Compound 120, 3-(5-[[5-([[4-(2-[[3-amino-6-(2-hydroxyphenyl)pyridazin-4-yl]oxy]ethyl)phenyl]methyl]amino)pentyl]amino]-4-oxo-1,2,3-benzotriazin-3-yl)piperidine-2,6-dione], in assay [1], the “BRM HiBit Degradation Maximum (%)” value is recorded as “B (“B” indicates maximum degradation ≥50%)” and the DC50 is greater than 100 nM. In addition, in assay [2], the DC50 was greater than 1000 nM and the Dmax is greater than 50%.
